Results on one compound are retold here after BindingDB's records for PubMed 22948716 (Children's Hospital of Philadelphia).

As usually defined, the IC50 is the concentration needed to halve the response being measured.

Assay [1] is described as follows: Inhibition of CENP-E in human HCT-116 cells expressing KRAS mutant assessed as decrease in cell viability after 72 hrs by Cell-titer Glo reagent assay.
Assay [2] is described as follows: Inhibition of CENP-E in human SK-N-FI cells assessed as decrease in cell viability after 72 hrs by Cell-titer Glo reagent assay.
Assay [3] is described as follows: Inhibition of CENP-E in human RKO cells expressing BRAF mutant assessed as decrease in cell viability after 72 hrs by Cell-titer Glo reagent assay.
A short description of assay [4]: Inhibition of CENP-E in human SK-N-FI cells assessed as decrease in cell viability after 72 hrs in presence of ERK1 siRNA by Cell-titer Glo reagent assay.
Assay [5] in a line: Inhibition of CENP-E in human SW620 cells expressing KRAS mutant assessed as decrease in cell viability after 72 hrs by Cell-titer Glo reagent assay.

`CC(C)Oc1ccc(C(=O)N[C@H](CNC(=O)CN(C)C)Cc2ccc(-c3cn4cccc([C@H](C)O)c4n3)cc2)cc1Cl` [Gsk-923295a]: the 50% inhibitory concentration (IC50) in assay [1] worked out at 52 nM; in assay [2], 283 nM; in assay [3], 56 nM; in assay [4] it was 134 nM; in assay [5] it was 42 nM.
